This is an account of results in patent publication US20250186451A1, “METHODS OF TREATING CANCER WITH IAP ANTAGONIST COMPOUNDS AND COMBINATION THERAPIES” (Otsuka Pharmaceutical Co., Ltd., priority 2022, published 2025).

Entries after “also recorded” stand apart in the source; their conditions may differ. Read-outs that look alike come from different tables or passages of the source.

Data set [1] relates to JURKAT cells. The data set can be described thus: Flow cytometry: annexin V/DAPI apoptosis and bead-based absolute cell count, JURKAT. The note with it: single agent, 5 days. A general note: In flow cytometry, cells or beads pass a laser one at a time.
Protocol: (§2) Cells were re-suspended in PBS containing CountBright beads (Invitrogen #C36950) to allow for measurement of the absolute cell number. Half-maximal inhibitory concentrations (IC50) was calculated using CalcuSyn software (BIOSOFT, Cambridge, UK).
Data set [2] relates to SUPT11 cells. The data set can be described thus: Flow cytometry: annexin V/DAPI apoptosis and bead-based absolute cell count, SUPT11.
Protocol: as §2
(§3) Combination index (CI) and IC50 were determined using Calcusyn (BIOSOFT, Cambridge, UK).
In data set [3] the test system is MOLT16 cell line. The data set can be described thus: Flow cytometry: annexin V/DAPI apoptosis and bead-based absolute cell count, MOLT16. The arrangement: species or system human. The note with it: MOLT16, single agent, 5 days.
Protocol: as §2, §3
Data set [4] deals with MOLT4 cells. The data set can be described thus: Flow cytometry: annexin V/DAPI apoptosis and bead-based absolute cell count, MOLT4. The note with it: MOLT4, single agent, 5 days.
Protocol: as §2
Data set [5] deals with LOUCY cells. The data set is described as follows: Western blot analysis in LOUCY cells. In kind it is cell-based, human. The conditions noted are these: combination = Compound I + Compound II. The text has this:
Membranes were probed with specific antibodies.
For orientation: Immunoblotting shows a protein as a band on a membrane.

The subject of data set [6] is ALL-SIL cells. The data set can be described thus: Flow cytometry: annexin V/DAPI apoptosis and bead-based absolute cell count, ALL-SIL. The arrangement: species or system human. Here is the method:
(§1) Combination index and IC50 were determined using Calcusyn (BIOSOFT, Cambridge, UK).

For data set [7], the system named is LOUCY cells. The data set can be described thus: Flow cytometry: annexin V/DAPI apoptosis and bead-based absolute cell count, LOUCY. Also on record: species or system human. The conditions noted are these: for IC50: Homo sapiens. How it is done:
as §1

The test system of data set [8] is CCRF-CEM cells. The data set can be described thus: Flow cytometry: annexin V/DAPI apoptosis and bead-based absolute cell count, CCRF-CEM. Also on record: species or system human.
Protocol: as §2, §3
For data set [9], the system named is PF382 cells. The data set is described as follows: Flow cytometry: annexin V/DAPI apoptosis and bead-based absolute cell count, PF382. Also on record: species or system human.
Protocol: as §2, §3
Data set [10] deals with leukemia initiating cells (LICs, CD45+, CD7+, CD19-, CD34+).
Data set [11] relates to PDX-derived cells (CD45+ bulk).

Take `C[C@@H]1CN(CC(=O)N2CC(C)(C)c3nc(CO)c(Cc4ccc(F)cc4)cc32)[C@@H](CN2CCOC[C@H]2C)CN1` [Compound I, 1-(6-(4-fluorobenzyl)-5-(hydroxymethyl)-3,3-dimethyl-2,3-dihydro-1H-pyrrolo [3,2-b]pyridin-1-yl)-2-((2R,5R)-5-methyl-2-(((R)-3-methylmorpholino)methyl)piperazin-1-yl)ethan-1-one]: the “sensitivity to Compound I” value in data set [1] is “least sensitive”; in data set [3], “least sensitive”; in data set [4], “least sensitive”; in [6] (ALL-SIL, single agent, 5 days), “moderate sensitivity”; in data set [8] (CCRF-CEM, single agent, 5 days) it was “moderate sensitivity”; in data set [9] (PF382, single agent, 5 days), “least sensitive”. Further, the half-maximal inhibitory concentration (IC50) (commonly the concentration at which inhibition is half-maximal) stood at 309 nM in [2] (Homo sapiens, SUPT11, 120 h, Table 1, SUPT11, Compound I single agent, 5 days); 11.7 nM in [2] (Homo sapiens, SUPT11, Table 2, SUPT11 cells, Combination = DEX + Compound I 1:1); 310 nM in data set [2] (Table 1, SUPT11, Compound I single agent, 5 days); 11800 nM in [6] (Homo sapiens, 120 h); 190 nM in data set [7] (120 h, Table 1, Loucy, Compound I single agent, 5 days); 190 nM in [7] (Table 4, LOUCY cells, Combination = Compound II:Compound I 1:10). The compound further yielded an IC50 in [8] (Homo sapiens, CCRF-CEM, 120 h) of 17800 nM. In addition, the “PARP expression (Western blot)” value in data set [5] is on record as “decreased expression”. Besides, the “cIAP2 expression (Western blot)” value in [5] is “decreased expression; also recorded: decrease”. Besides, the “cleaved caspase 7 (Western blot)” value in data set [5] is on record as “increase”. In addition, in data set [9] (PF382, single agents or combination Compound I:DEX 1:1), the apoptosis induction result is on record as “no apoptosis induction”.

With `CC1(C)CCC(CN2CCN(c3ccc(C(=O)NS(=O)(=O)c4ccc(NCC5CCOCC5)c([N+](=O)[O-])c4)c(Oc4cnc5[nH]ccc5c4)c3)CC2)=C(c2ccc(Cl)cc2)C1` [Compound II, 2-((1H-pyrrolo[2,3-b]pyridin-5-yl)oxy)-4-(4-((4′-chloro-5,5-dimethyl-3,4,5,6-tetrahydro-[1,1′-biphenyl]-2-yl)methyl)piperazin-1-yl)-N-((3-nitro-4-(((tetrahydro-2H-pyran-4-yl)methyl)amino)phenyl)sulfonyl)benzamide, reference compound], the cell death in data set [7] (LOUCY, combination = Compound II:Compound I 1:10) was 27+0.9%.

`C[C@@H]1C[C@H]2[C@@H]3CCC4=CC(=O)C=C[C@]4(C)[C@@]3(F)[C@@H](O)C[C@]2(C)[C@@]1(O)C(=O)CO` [DEX, dexamethasone, reference compound]: the cytotoxic effect in data set [10] is recorded as 62±2%; in data set [11], 58±2%. Further, the EC50 was around 2000 nM in data set [2] (Homo sapiens, SUPT11, read-out: ED50, SUPT11 cells, DEX treatment alone) and 2000 nM in data set [2] (Homo sapiens, SUPT11, read-out: ED50, Table 2, SUPT11 cells, Combination = DEX + Compound I 1:1). In data set [8] (CCRF-CEM (DEX-resistant), combination = Compound I:DEX 1:1), the cell death was 20+3%.
